# Measured values from ChEMBL document CHEMBL5518237, “Design of Novel 2-Phenylquinazolin-4-amines as Selective CYP1B1 Inhibitors for Overcoming Paclitaxel Resistance in A549 Cells” (J Med Chem, 2024).
# Legend:
# [1] = biological target: T1, CYP1B1 (Homo sapiens, UniProt Q16678); test: Inhibition of human recombinant CYP1B1 using 7-ethoxyresorufin as substrate at 1 uM preincubated with enzyme for 5 mins followed by fluorescent substrate and NADPH addition and measured after 35 mins by EROD assay; type: ADME; conditions: recombinant CYP1B1, probe 7-ethoxyresorufin, time 40 min
# T1 sequence (Q16678 whole entry): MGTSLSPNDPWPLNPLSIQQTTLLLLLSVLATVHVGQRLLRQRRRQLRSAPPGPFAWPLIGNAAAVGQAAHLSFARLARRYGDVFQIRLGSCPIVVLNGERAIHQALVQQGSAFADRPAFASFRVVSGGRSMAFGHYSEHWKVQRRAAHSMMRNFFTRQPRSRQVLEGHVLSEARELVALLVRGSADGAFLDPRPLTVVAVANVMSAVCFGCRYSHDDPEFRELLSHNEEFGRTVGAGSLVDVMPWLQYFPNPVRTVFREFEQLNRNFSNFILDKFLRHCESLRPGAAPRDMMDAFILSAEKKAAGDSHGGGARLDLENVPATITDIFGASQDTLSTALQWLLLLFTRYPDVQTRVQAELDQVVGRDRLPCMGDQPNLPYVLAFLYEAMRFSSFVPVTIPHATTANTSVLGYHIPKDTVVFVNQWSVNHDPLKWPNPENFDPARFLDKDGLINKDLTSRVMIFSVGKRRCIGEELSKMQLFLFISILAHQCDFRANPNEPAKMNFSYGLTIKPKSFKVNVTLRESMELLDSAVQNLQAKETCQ
# [2] = biological target: T1, CYP1B1; test: Inhibition of human recombinant CYP1B1 using 7-ethoxyresorufin as substrate at 0.01 uM preincubated with enzyme for 5 mins followed by fluorescent substrate and NADPH addition and measured after 35 mins by EROD assay; type: ADME; conditions: recombinant CYP1B1, probe 7-ethoxyresorufin, time 40 min
"inhibition at 35 min, 1 µM [1]","inhibition at 35 min, 0.01 µM [2]",Structure (SMILES)
95.2%,44.2%,COc1ccc(-c2nc(N)c3ccc4ccccc4c3n2)cc1
91.7%,10.1%,COc1cccc(-c2nc(N)c3ccccc3n2)c1
94.5%,69.5%,O=c1[nH]c(-c2ccc(Br)cc2)nc2ccccc12
1.98%,28.4%,COC(=O)c1cccc(-c2nc(N)c3ccccc3n2)c1
86.4%,21.8%,CCCCNc1nc(-c2ccc(I)cc2)nc2ccccc12
65.5%,-13.5%,Nc1nc(-c2ccccc2)nc2ccccc12
92.7%,15.9%,COC(=O)c1ccc(-c2nc(N)c3ccccc3n2)cc1
91.1%,13.8%,Ic1ccc(-c2nc(N3CCCCC3)c3ccccc3n2)cc1
80.7%,3.73%,Nc1nc(-c2ccc(F)cc2)nc2ccccc12
94.9%,39.8%,Ic1ccc(-c2nc(N3CCCC3)c3ccccc3n2)cc1
78.9%,-1.45%,Nc1nc(-c2cccc(F)c2)nc2ccccc12
88.5%,63.1%,Nc1nc(-c2ccc(I)cc2)nc2c1ccc1ccccc12
96.5%,68.5%,OCCNc1nc(-c2ccc(I)cc2)nc2ccccc12
94.2%,14%,Nc1nc(-c2cccc(Cl)c2)nc2c1ccc1ccccc12
94.2%,67.8%,CCCNc1nc(-c2ccc(I)cc2)nc2ccccc12
68%,6.96%,Nc1nc(-c2ccc(Cl)nc2)nc2ccccc12
95.5%,65.4%,CN(C)c1nc(-c2ccc(I)cc2)nc2ccccc12

"inhibition at 35 min, 1 µM [1]","inhibition at 35 min, 0.01 µM [2]",Structure (SMILES)
10.2%,22.4%,Nc1nc(-c2cccc(C(=O)O)c2)nc2ccccc12
93.8%,-12.8%,Nc1nc(-c2cccc(Br)c2)nc2c1ccc1ccccc12
73.4%,12.8%,Nc1nc(-c2ccc(Br)nc2)nc2ccccc12
75.3%,-13.1%,Cc1ccc(-c2nc(N)c3ccc4ccccc4c3n2)cc1
27.6%,1.94%,Nc1nc(-c2ccc(Oc3ccc(Cl)cc3Cl)cc2)nc2ccccc12
94.8%,3.87%,COc1cccc(-c2nc(N)c3ccc4ccccc4c3n2)c1
91.2%,2%,Ic1ccc(-c2nc(NCc3ccccc3)c3ccccc3n2)cc1
93.5%,6.15%,Nc1nc(-c2ccccc2)nc2c1ccc1ccccc12
55.4%,13.2%,Nc1nc(-c2cccc(Br)c2)nc2ccccc12
39.5%,-6.11%,NCCNc1nc(-c2ccc(I)cc2)nc2ccccc12
-2.32%,20.2%,Nc1nc(-c2ccc(C(=O)O)cc2)nc2ccccc12
96.7%,66.4%,Nc1nc(-c2cccc(I)c2)nc2ccccc12
96%,74.4%,C#CCOc1ccc(-c2nc(N)c3ccccc3n2)cc1
95%,11%,Nc1nc(-c2ccc(F)cc2)nc2c1ccc1ccccc12
94.5%,10.5%,Nc1nc(-c2cccc(F)c2)nc2c1ccc1ccccc12
95.4%,69.4%,Nc1nc(-c2ccc(Cl)cc2)nc2c1ccc1ccccc12
96%,68.4%,Nc1nc(-c2ccc(Cl)cc2)nc2ccccc12
